Results on ten compounds are retold here after ChEMBL document CHEMBL1201862, “PubChem BioAssay data set” (2004).

Some test systems named below: SK-MEL-5; HCC 2998; NCI-H23; SF-268; HT-29; COLO 205; HCT-116; SN12C; HOP-62; TK-10; SNB-19; HOP-92; MOLT-4; 786-0; HCT-15; T47D; MDA-MB-435; SNB-75; LOX IMVI; SW-620.
What all share (assay): NCI-60 cell line screen, 48 h

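48-hour exposure; five concentrations; linearly interpolated endpoints. GI50 is the concentration that inhibits growth by half.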 Activity calls are given as the source filed them. No stated cut-off is given here; in the data, active = GI50 up to about 1.1 µM and inactive = higher.

`CCOC(NC(=O)CC)(C(F)(F)F)C(F)(F)F`: the GI50 in the experiment with SK-MEL-5, with HCC 2998, in the experiment with NCI-H23, with SF-268, with HT-29 and in the experiment on COLO 205 was > 100 µM (inactive) throughout. For the same compound, the GI50 in the experiment on HCT-116, with SN12C, with HOP-62, in the experiment with TK-10, with SNB-19 and with HOP-92 was > 100 µM (inactive) throughout. For the same compound, the GI50 with MOLT-4 was > 100 µM (inactive); in the experiment on 786-0, > 100 µM (inactive); with HCT-15, above 100 µM; in the experiment on T47D, > 100 µM (inactive); with MDA-MB-435, > 100 µM (inactive); in the experiment on SNB-75, > 100 µM (inactive). The GI50 in the experiment on LOX IMVI and in the experiment with SW-620 was > 100 µM (inactive) in each case.

Take `O=C(OCc1c(-c2ccccc2)nn(-c2ccccc2)c1COC(=O)Oc1ccccc1)Oc1ccccc1`: the GI50 is 31.8 µM (inactive) in the experiment on SK-MEL-5; > 100 µM (inactive) with HCC 2998; > 100 µM (inactive) in the experiment with NCI-H23; > 100 µM (inactive) in the experiment on SF-268; > 100 µM (inactive) in the experiment with HT-29; > 100 µM (inactive) in the experiment with COLO 205. The GI50 in the experiment with HCT-116, in the experiment with SN12C, in the experiment on HOP-62, in the experiment on TK-10, in the experiment with SNB-19 and in the experiment with HOP-92 was > 100 µM (inactive) throughout. Further, the GI50 in the experiment on MOLT-4 is > 100 µM (inactive); in the experiment with 786-0 it was > 100 µM (inactive); in the experiment on HCT-15, above 100 µM; in the experiment on T47D, > 100 µM (inactive); with MDA-MB-435 it was > 100 µM (inactive); in the experiment on SNB-75 it was > 100 µM (inactive). The GI50 in the experiment on LOX IMVI and in the experiment with SW-620 was > 100 µM (inactive) in each case.

For the compound `CN1C(=O)c2ccccc2OC12C=Cc1c(ccc3ccccc13)O2` (centres undefined), the GI50 is 6.05 µM (inactive) in the experiment on SK-MEL-5; 3.95 µM (inactive) in the experiment on HCC 2998; 4.05 µM (inactive) in the experiment with NCI-H23; 3.78 µM (inactive) in the experiment with SF-268; 2.92 µM (inactive) in the experiment on HT-29; 3.31 µM (inactive) in the experiment on COLO 205. For the same compound, the GI50 in the experiment on HCT-116 is 4.02 µM (inactive); with SN12C, 15.2 µM (inactive); in the experiment on HOP-62, 4.29 µM (inactive); with TK-10 it was 7.82 µM (inactive); with SNB-19 it was 4.49 µM (inactive); in the experiment with HOP-92, 1.85 µM (inactive). The GI50 was 3.53 µM (inactive) in the experiment with MOLT-4; 7.19 µM (inactive) in the experiment with 786-0; 2.95 µM in the experiment on HCT-15; 5.43 µM (inactive) with T47D; 2.29 µM (inactive) in the experiment with MDA-MB-435; 4.84 µM (inactive) with SNB-75. Besides, the GI50 in the experiment on LOX IMVI was 5.93 µM (inactive); in the experiment on SW-620, 3.64 µM (inactive).

Consider `Cc1ccc(OCC2OC(n3cnc4nc(N)nc(Cl)c43)CC2Oc2ccc(C)cc2)cc1` (centres undefined), for which the GI50 with SK-MEL-5 was 19.7 µM (inactive); in the experiment on HCC 2998 it was 15.8 µM (inactive); with NCI-H23, 15.6 µM (inactive); in the experiment on SF-268, 15.4 µM (inactive); in the experiment on HT-29, 23.7 µM (inactive); in the experiment with COLO 205, 16.8 µM (inactive). In addition, the GI50 is 22 µM (inactive) with HCT-116; 15.8 µM (inactive) in the experiment on SN12C; 22.3 µM (inactive) with HOP-62; 31.1 µM (inactive) with TK-10; 11.8 µM (inactive) in the experiment with SNB-19; 17.3 µM (inactive) with HOP-92. The GI50 was 4.51 µM (inactive) with MOLT-4; 22.1 µM (inactive) in the experiment with 786-0; 14.9 µM in the experiment on HCT-15; 14.9 µM (inactive) in the experiment with T47D; 27.9 µM (inactive) with MDA-MB-435; 11 µM (inactive) in the experiment on SNB-75. Moreover, the GI50 in the experiment with LOX IMVI is 15.7 µM (inactive); in the experiment with SW-620, 32.5 µM (inactive).

For `O=Cc1ccc(-c2cccc([N+](=O)[O-])c2)s1`, the GI50 in the experiment on SK-MEL-5, in the experiment on HCC 2998, with NCI-H23, in the experiment with SF-268, with HT-29 and in the experiment on COLO 205 was > 100 µM (inactive) each time. In addition, the GI50 in the experiment on HCT-116, in the experiment with SN12C, with HOP-62, in the experiment on TK-10, in the experiment with SNB-19 and in the experiment with HOP-92 was > 100 µM (inactive) throughout. In addition, the GI50 was 41.2 µM (inactive) in the experiment on MOLT-4; 80 µM (inactive) in the experiment on 786-0; above 100 µM in the experiment on HCT-15; 86.5 µM (inactive) with T47D; > 100 µM (inactive) in the experiment on MDA-MB-435; 70.8 µM (inactive) with SNB-75. The GI50 with LOX IMVI and with SW-620 was > 100 µM (inactive) throughout.

Consider `CCOC(=O)/C=C/C1(CCOC(C)=O)CCCCC1`, for which the GI50 with SK-MEL-5, with HCC 2998, in the experiment on NCI-H23, in the experiment on SF-268, with HT-29 and with COLO 205 was > 10 µM (inactive) in each case. Moreover, the GI50 in the experiment on HCT-116, with SN12C, in the experiment on HOP-62, with TK-10, in the experiment on SNB-19 and in the experiment on HOP-92 was > 10 µM (inactive) throughout. The GI50 in the experiment on MOLT-4 was > 10 µM (inactive); in the experiment with 786-0 it was > 10 µM (inactive); in the experiment on HCT-15, above 10 µM; in the experiment on T47D it was > 10 µM (inactive); with MDA-MB-435, > 10 µM (inactive); with SNB-75, > 10 µM (inactive). The GI50 with LOX IMVI and in the experiment with SW-620 was > 10 µM (inactive) throughout.

Turning to `CCOC(=O)c1ccc(/N=c2/[nH]c3ccccc3s/c2=N/c2ccc(C(=O)OCC)cc2)cc1`, the GI50 in the experiment on SK-MEL-5 was > 100 µM (inactive); in the experiment on HCC 2998 it was > 100 µM (inactive); in the experiment on NCI-H23, > 100 µM (inactive); with SF-268, > 100 µM (inactive); with HT-29, 70.3 µM (inactive); with COLO 205, > 100 µM (inactive). Also, the GI50 was 53.1 µM (inactive) in the experiment with HCT-116; > 100 µM (inactive) in the experiment with SN12C; > 100 µM (inactive) with HOP-62; > 100 µM (inactive) in the experiment with TK-10; > 100 µM (inactive) in the experiment with SNB-19; > 100 µM (inactive) in the experiment on HOP-92. The GI50 is > 100 µM (inactive) in the experiment with MOLT-4; 25.4 µM (inactive) in the experiment with 786-0; above 100 µM in the experiment with HCT-15; > 100 µM (inactive) in the experiment on T47D; > 100 µM (inactive) with MDA-MB-435; 48 µM (inactive) in the experiment on SNB-75. Besides, the GI50 with LOX IMVI and in the experiment with SW-620 was > 100 µM (inactive) in each case.

For the compound `Oc1c(C(Nc2ccccn2)c2ccccc2)ccc2cccnc12` (centres undefined), the GI50 in the experiment with SK-MEL-5 was 3.66 µM (inactive); with HCC 2998 it was 49.9 µM (inactive); in the experiment with NCI-H23, 3.6 µM (inactive); with SF-268 it was 2.94 µM (inactive); in the experiment with HT-29, 4.55 µM (inactive); in the experiment on COLO 205 it was 4.74 µM (inactive). Further, the GI50 in the experiment with HCT-116 is 3.26 µM (inactive); with SN12C it was 1.24 µM (inactive); in the experiment on HOP-62 it was 4.94 µM (inactive); with TK-10, 4.99 µM (inactive); in the experiment with SNB-19, 5.51 µM (inactive); in the experiment with HOP-92, 1.94 µM (inactive). In addition, the GI50 in the experiment on MOLT-4 was 2.39 µM (inactive); with 786-0, 2.76 µM (inactive); in the experiment on HCT-15 it was 1.98 µM; with T47D it was 3.94 µM (inactive); with MDA-MB-435 it was 5.73 µM (inactive); in the experiment on SNB-75, 6.24 µM (inactive). In addition, the values for the GI50 in the experiment on LOX IMVI and in the experiment on SW-620 were 2.77 µM (inactive) and 7.13 µM (inactive), respectively.

For the compound `CCOC(=O)c1c(N/C(S)=N/c2ccccc2)sc2c1CCOC2`, the GI50 is 53.1 µM (inactive) with SK-MEL-5; 70.1 µM (inactive) with HCC 2998; 26.4 µM (inactive) with NCI-H23; 64.1 µM (inactive) in the experiment with SF-268; 89.9 µM (inactive) in the experiment on HT-29; > 100 µM (inactive) in the experiment with COLO 205. The GI50 in the experiment on HCT-116 is 37.2 µM (inactive); in the experiment with SN12C it was 48.8 µM (inactive); with HOP-62 it was 92 µM (inactive); in the experiment on TK-10, 62.8 µM (inactive); in the experiment on SNB-19, > 100 µM (inactive); in the experiment with HOP-92, 24.9 µM (inactive). The GI50 with MOLT-4 was 69.5 µM (inactive); in the experiment with 786-0, > 100 µM (inactive); in the experiment on HCT-15, 46.7 µM; in the experiment with T47D it was 24 µM (inactive); in the experiment on MDA-MB-435, 56.6 µM (inactive); in the experiment on SNB-75 it was 17.5 µM (inactive). Further, the GI50 with LOX IMVI was 52.7 µM (inactive); in the experiment on SW-620, > 100 µM (inactive).

As for `S=C1C(CCCOCc2ccccc2)C2CCCC23CC2(CCN13)OCCS2` (centres undefined), the GI50 with SK-MEL-5, in the experiment with HCC 2998, in the experiment with NCI-H23, with SF-268, in the experiment on HT-29 and in the experiment on COLO 205 was > 10 µM (inactive) throughout. The GI50 in the experiment on SN12C, with HOP-62, in the experiment on TK-10, in the experiment with SNB-19, in the experiment on HOP-92 and in the experiment on MOLT-4 was > 10 µM (inactive) each time. For the same compound, the GI50 in the experiment with 786-0 is > 10 µM (inactive); in the experiment on HCT-15 it was above 10 µM; with T47D it was > 10 µM (inactive); with MDA-MB-435, > 10 µM (inactive); in the experiment on SNB-75, > 10 µM (inactive); in the experiment on LOX IMVI it was > 10 µM (inactive). The GI50 with SW-620 is > 10 µM (inactive).
